From US11292807B2 (OCEANS LTD., priority 2015, dated 2022)

Columns and labels:
[1] = system: SKOV3 (ovarian adenocarcinoma); assay: CIMA assay, cell viability, SKOV3; settings: SKOV
[2] = system: THP-1 (acute monocytic leukemia); assay: CIMA assay, cell viability, THP-1
[3] = CIMA assay, cell viability, CCD1079SK; settings: human, Average cell viability, CCD
[4] = system: CCD1079SK (fibroblast, noncancerous but proliferating); assay: CIMA assay, cell viability, CCD1079SK; settings: CCD
A549 (lung carcinoma) = assay: CIMA assay (colorimetric indicator of metabolic activity), cell viability, A549; settings: for Average cell viability: unit assumed
Protocol: Stock solutions of the extracts were prepared in dimethylsulfoxide (DMSO) at 10 mg/mL and stored in 200 μl aliquots at −20° C. until analysis. This preparation ensured that the DMSO delivered to cells in culture never exceeded 1%.
Prepared extracts were assessed following chronic exposure conditions in which cells were seeded at 2×10^3 cells/well (96 well-plate) and incubated with test compounds for 72 h. Each compound was evaluated over a range of concentrations (0, 10, 25, 50 or 100 μg/ml). Cell proliferation was initially assessed using a standard colorimetric indicator of metabolic activity (CIMA) assay. In this assay, tetrazole reduction was evaluated as a measure of metabolic function that evaluates mitochondrial activity to determine the extent of cell proliferation within a culture. This assay is based on the reduction of yellow tetrazolium salt to purple formazan by mitochondrial reductases enzyme in viable cells, resulting in a color changed that confers a change in absorbance.

[5] = 50 ug/mL, listed as 174-13-14-3
[6] = 100 ug/mL, listed as 169-14-15-4
[7] = 100 ug/mL, listed as 174-13-14-3
[8] = THP-1, 1 ug/mL, listed as 174-13-14-3
[9] = THP-1, 10 ug/mL, listed as 174-13-14-3
[10] = THP-1, 50 ug/mL, listed as 174-13-14-3
[11] = THP-1, 100 ug/mL, listed as 174-13-14-3
[12] = 10 ug/mL, listed as 174-13-14-3
[13] = A549, 1 ug/mL, listed as 174-13-14-3
[14] = A549, 10 ug/mL, listed as 169-14-15-4
[15] = A549, 10 ug/mL, listed as 174-13-14-3
[16] = A549, 50 ug/mL, listed as 169-14-15-4
[17] = A549, 50 ug/mL, listed as 174-13-14-3
[18] = A549, 100 ug/mL, listed as 169-14-15-4
[19] = A549, 100 ug/mL, listed as 174-13-14-3

## CC/C=C\C/C=C\C/C=C\C/C=C\C/C=C\CCCC(=O)OCC(COC1OC(CO)C(O)C(O)C1O)OC(=O)CCCCCCCCCCCCCCC (stereo not shown) [Compound 2, MGDG C20:5/C16:0]
[1]; [5]
  Fold change in viability AVG: 0.67
[1]; [6]
  Fold change in viability AVG: 0.48
[1]; [7]
  Fold change in viability AVG: 0.19
[2]; Homo sapiens, THP-1, read-out: Average cell viability, THP-1, 1 ug/mL
  viability at 1 µg/mL: 102%
[2]; Homo sapiens, THP-1, read-out: Average cell viability, THP-1, 10 ug/mL
  viability at 10 µg/mL: 101%
[2]; Homo sapiens, THP-1, read-out: Average cell viability, THP-1, 50 ug/mL
  viability at 50 µg/mL: 27%
[2]; Homo sapiens, THP-1, read-out: Average cell viability, THP-1, 100 ug/mL
  viability at 100 µg/mL: 17%
[2]; THP-1, 1 ug/mL, listed as 169-14-15-4
  Fold change in viability AVG: 1.16
[2]; [8]
  Average cell viability: 91%
  Fold change in viability AVG: 1.03
[2]; THP-1, 10 ug/mL, listed as 169-14-15-4
  Fold change in viability AVG: 1.14
[2]; [9]
  Average cell viability: 88%
  Fold change in viability AVG: 1.00
[2]; THP-1, 50 ug/mL, listed as 169-14-15-4
  Fold change in viability AVG: 0.31
[2]; [10]
  Average cell viability: 21%
  Fold change in viability AVG: 0.24
[2]; THP-1, 100 ug/mL, listed as 169-14-15-4
  Fold change in viability AVG: 0.19
[2]; [11]
  Average cell viability: 21%
  Fold change in viability AVG: 0.23
[2]; THP-1, sample at 1 ug/mL, listed as 169-14-15-4
  THP-1 AVG: 1.16
[2]; THP-1, sample at 1 ug/mL, listed as 174-13-14-3
  THP-1 AVG: 1.03
[2]; THP-1, sample at 10 ug/mL, listed as 169-14-15-4
  THP-1 AVG: 1.14
[2]; THP-1, sample at 10 ug/mL, listed as 174-13-14-3
  THP-1 AVG: 1.00
[2]; THP-1, sample at 50 ug/mL, listed as 169-14-15-4
  THP-1 AVG: 0.31
[2]; THP-1, sample at 50 ug/mL, listed as 174-13-14-3
  THP-1 AVG: 0.24
[2]; THP-1, sample at 100 ug/mL, listed as 169-14-15-4
  THP-1 AVG: 0.19
[2]; THP-1, sample at 100 ug/mL, listed as 174-13-14-3
  THP-1 AVG: 0.23
[3]; CCD1079SK fibroblast cells (noncancerous, proliferating), 1 ug/mL
  viability at 72 h, 1 ug/mL: 107%
[3]; CCD1079SK fibroblasts (noncancerous, proliferating), 10 ug/mL
  viability at 72 h, 10 ug/mL: 99%
[3]; CCD1079SK fibroblasts (noncancerous, proliferating), 50 ug/mL
  viability at 72 h, 50 ug/mL: 32%
[3]; CCD1079SK fibroblasts (noncancerous, proliferating), 100 ug/mL
  viability at 72 h, 100 ug/mL: 13%
[4]; 1 ug/mL, listed as 169-14-15-4
  Fold change in viability AVG: 1.18
[4]; 1 ug/mL, listed as 174-13-14-3
  Average cell viability: 101%
  Fold change in viability AVG: 1.11
[4]; 10 ug/mL, listed as 169-14-15-4
  Fold change in viability AVG: 1.08
[4]; [12]
  Average cell viability: 89%
  Fold change in viability AVG: 0.98
[4]; 50 ug/mL, listed as 169-14-15-4
  Fold change in viability AVG: 0.36
[4]; [5]
  Average cell viability: 20%
  Fold change in viability AVG: 0.22
[4]; [6]
  Fold change in viability AVG: 0.14
[4]; [7]
  Average cell viability: 14%
  Fold change in viability AVG: 0.15
A549 (lung carcinoma); A549, 1 ug/mL, listed as 169-14-15-4
  Fold change in viability AVG: 1.19
A549 (lung carcinoma); [13]
  Fold change in viability AVG: 1.12
  Average cell viability: 96%
A549 (lung carcinoma); [14]
  Fold change in viability AVG: 1.14
  Average cell viability: 98%
A549 (lung carcinoma); [15]
  Fold change in viability AVG: 0.60
  Average cell viability: 52%
A549 (lung carcinoma); [16]
  Fold change in viability AVG: 0.98
  Average cell viability: 84%
A549 (lung carcinoma); [17]
  Fold change in viability AVG: 0.60
  Average cell viability: 51%
A549 (lung carcinoma); [18]
  Fold change in viability AVG: 0.74
  Average cell viability: 64%
A549 (lung carcinoma); [19]
  Fold change in viability AVG: 0.41
  Average cell viability: 35%
A549 (lung carcinoma); A549, sample at 1 ug/mL, listed as 169-14-15-4
  A549 AVG: 1.19
A549 (lung carcinoma); A549, sample at 1 ug/mL, listed as 174-13-14-3
  A549 AVG: 1.12
A549 (lung carcinoma); A549, sample at 10 ug/mL, listed as 169-14-15-4
  A549 AVG: 1.14
A549 (lung carcinoma); A549, sample at 10 ug/mL, listed as 174-13-14-3
  A549 AVG: 0.60
A549 (lung carcinoma); A549, sample at 50 ug/mL, listed as 169-14-15-4
  A549 AVG: 0.98
A549 (lung carcinoma); A549, sample at 50 ug/mL, listed as 174-13-14-3
  A549 AVG: 0.60
A549 (lung carcinoma); A549, sample at 100 ug/mL, listed as 169-14-15-4
  A549 AVG: 0.74
A549 (lung carcinoma); A549, sample at 100 ug/mL, listed as 174-13-14-3
  A549 AVG: 0.41
A549 (lung carcinoma); Homo sapiens, A549, read-out: Average cell viability, A549, 1 ug/mL
  viability at 1 µg/mL: 102%
